Reference: paper PMC10527014 (Antiviral research, 2023)
Where two headings read alike, the source gives them in different places.

Columns and labels:
CYP3A4 [1] = molecular target: CYP3A4 (Homo sapiens, UniProt P08684); conditions: human liver microsomes, at higher concentrations (Fig. S21)
mouse-adapted CVB5 = test: Mouse model of CVB5-induced pancreatitis; format: in vivo, BALB/c mice; conditions: CVB5-infected mice, Fig. S20
[2] = tested on: enterovirus / picornavirus infections; conditions: cited from earlier work
[3] = tested on: EV-D68 MP30 PP (mouse-adapted US/MO/14-18949); conditions: day 3 p.i., during animal model development; ref Hurst et al., 2019; cited from earlier work
[4] = molecular target: T1, pregnane X-receptor (PXR) (Homo sapiens, UniProt O75469); test: PXR agonist activity
T1 sequence (O75469 1-434): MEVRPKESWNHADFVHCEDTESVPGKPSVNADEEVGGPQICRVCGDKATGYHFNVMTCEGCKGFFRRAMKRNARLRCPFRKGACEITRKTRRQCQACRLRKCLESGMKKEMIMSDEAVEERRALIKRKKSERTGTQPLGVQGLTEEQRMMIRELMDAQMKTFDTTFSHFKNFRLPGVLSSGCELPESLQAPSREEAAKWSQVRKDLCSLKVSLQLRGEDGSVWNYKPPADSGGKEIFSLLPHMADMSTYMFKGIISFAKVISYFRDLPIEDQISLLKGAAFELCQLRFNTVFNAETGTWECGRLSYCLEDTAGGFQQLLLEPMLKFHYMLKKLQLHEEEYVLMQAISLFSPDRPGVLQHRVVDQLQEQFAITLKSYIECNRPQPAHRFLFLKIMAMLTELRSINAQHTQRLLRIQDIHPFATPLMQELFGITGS

EV-71 = conditions: read-out: IC50 against EV-71 in vitro; ref Zhang et al., 2012; cited from earlier work
[5] = tested on: 215 clinical isolates of EV serotypes; conditions: ~90% of isolates; ref Pevear et al., 1999; cited from earlier work
[6] = tested on: Coxsackievirus B3-Woodruff (CVB3); format: cell-based; conditions: Coxsackievirus, B3|CVB3, HeLa, read-out: Inhibitory concentration EC50 against CVB3-Woodruff
CYP3A4 [7] = conditions: 1 μM, rifampicin as positive control, previously tested
[8] = tested on: Coxsackievirus B3-Woodruff (CVB3); test: microbe, parasite or virus in culture; conditions: B3|CVB3, HeLa
Coxsackievirus B5 (CVB5) = test: CVB5 CPE rescue; format: cell-based; conditions: Enterovirus B, B5|CVB5, Vero, read-out: EC50 against CVB5
EV-D68 [9] = conditions: read-out: EC50 against EV-D68; ref Liu et al., 2015b; cited from earlier work
EV-D68 [10] = conditions: mouse model of EV-D68-associated AFM; ref Hixon et al., 2017; cited from earlier work
[11] = tested on: EV-D68 MP30 PP (mouse-adapted); test: EV-D68 neurological infection; format: in vivo, AG129 mice
[12] = tested on: EV-D68 MP30 PP (mouse-adapted US/MO/14-18949); test: EV-D68 respiratory infection model in four-week-old AG129 mice; format: in vivo; conditions: days 1 and 3 p.i., P≤0.05 vs placebo; guanidine 100 mg/kg/day

Chain of CYP3A4 (Homo sapiens, UniProt P08684) (P08684 whole entry): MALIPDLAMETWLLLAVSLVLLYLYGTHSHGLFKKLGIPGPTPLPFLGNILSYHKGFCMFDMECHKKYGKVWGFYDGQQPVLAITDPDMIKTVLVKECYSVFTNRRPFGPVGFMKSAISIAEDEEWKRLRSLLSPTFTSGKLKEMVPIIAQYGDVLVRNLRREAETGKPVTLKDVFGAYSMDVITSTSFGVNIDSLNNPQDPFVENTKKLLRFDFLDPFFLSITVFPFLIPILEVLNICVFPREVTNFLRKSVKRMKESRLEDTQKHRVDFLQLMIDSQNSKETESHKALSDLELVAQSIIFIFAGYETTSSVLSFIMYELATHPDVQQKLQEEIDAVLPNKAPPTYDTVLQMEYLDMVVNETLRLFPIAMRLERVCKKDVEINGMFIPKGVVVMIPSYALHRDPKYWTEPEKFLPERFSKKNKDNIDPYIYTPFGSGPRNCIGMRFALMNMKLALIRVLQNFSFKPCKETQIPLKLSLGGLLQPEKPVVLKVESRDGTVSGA

In the case of `Cc1cc(CCCOc2c(C)cc(-c3noc(C(F)(F)F)n3)cc2C)on1` [Pleconaril], the “Effect on CYP3A4 (in words)” value (CYP3A4 [1]) is listed as “activation (or autoactivation) of CYP3A4”, the “Histology of pancreatic tissue” value (mouse-adapted CVB5) is listed as “no signs of tissue damage” and the “Effect on the treatment of the common cold” value ([2]; 400 mg three times a day over five days, ref Hayden et al., 2003) is listed as “no statistically significant effect”. The “Patients with clinical improvement” value ([2]; chronic meningoencephalitis, ref Aradottir et al., 2001, Rotbart et al.) was 78%, the “Neonates in whom treatment proved effective” value ([2]; neonates with severe enteroviral hepatitis, ref Aradottir et al., 2001) was 2 of 3 and the Lung virus titers [3] was “did not demonstrate any antiviral activity”. For the same molecule, the “PXR agonism (in words)” value [4] was “neither 11526092 nor pleconaril is an agonist”, the IC50 (EV-71) was 340 to 1420 nM and the IC90 [5] was no more than 180 nM. For the same molecule, the EC50 [6] was 150 ± 10 nM, the “CYP3A induction, of control” value (CYP3A4 [7]) was 13 % of control and the CYP3A induction (CYP3A4 [7]; single donor in duplicate) was 1.7 x. The EC50 ([8]; read-out: Inhibitory concentration EC50 against CVB3-Woodruff, HeLa cells, adding drug to virus and then infecting at MOI 1 PFU / cell, ± SEM) was 45 nM, the EC50 ([8]; read-out: Inhibitory concentration EC50 against CVB3-Woodruff, HeLa cells, adding drug to virus and then infecting at MOI 3 PFU / cell, ± SEM) was 333 ± 210 nM and the EC50 (Coxsackievirus B5 (CVB5)) was 0.66 nM. The EC50 (EV-D68 [9]) was 430 nM.
In the case of `CNCCC(Oc1ccc(C(F)(F)F)cc1)c1ccccc1` (stereo not shown) [fluoxetine], the Viral load (EV-D68 [10]) is given as “did not reduce the viral load”.
With `Cl.N=C(N)N` [guanidine, Guanidine HCl, reference compound] the Neurological scores ([11]; post-challenge study) was “reduced the neurological score on day 3 post-infection”, the “Mice protected from challenge infection” value ([11]; post-challenge study (treatment 4 hours post-infection)) was greater than 80% and the “Mice protected from challenge infection” value ([11]; pre-challenge study (treatment 2 hours pre-infection)) was 100%. For the same molecule, the “Protection from weight loss” value ([11]; pretreatment, P≤0.0001, Fig. S19) was “significant protection” and the Lung virus titers [12] was “showed a reduction”.
